In patent publication US5221669A, “Antiviral compositions containing α-cyclodextrin sulfates alone and in combination with other known antiviral agents and glucocorticoids and methods of treating viral infections” (The United States of America as represented by the …, priority 1991, dated 1993):
Where “and” joins values, the source holds several entries; their conditions need not be identical. Equal values may be shown once. Read-outs that look alike come from different tables or passages of the source.

Tests used:
[1] = tested on: PMNCs; test: Cell proliferation (cell count) with hydrocortisone phosphate and α-cyclodextrin sulfate; assay type: cell-based, human
Description: Anti-HIV Effects of Sulphated Sugars in Presence of Glucocorticoids. HIV infections are at some later stages invariably complicated by pathologies which involve neovascularization, particularly those associated with Kaposi's sarcoma. Previously, Folkman et al., Science 243, 1490-1493, 1989, observed that B-CDS stimulates this particular pathology, but that this side-effect can be suppressed by glucocorticoids. […] Thus, pathological neovascularization can be avoided without comprising the anti-HIV effects.

[2] = tested on: HIV-1; test: HIV-1 replication in PHA-stimulated PMNC cultures, RT method on culture supernatants; settings: for Increase in virus production: concentrations of 1.0 μg ml^-1 or less; for Virus-enhancement effect: low drug concentrations
Description: Phytohaemagglutinin stimulated human peripheral blood mononuclear cells (PHA-PMNCs) were exposed to A-CDS and PPS and infected with HIV-1 as follows. PMNCs stimulated with 10.0 μg ml^-1 of PHA were further propagated in Medium B (RPMI-1640 medium with 10% fetal calf serum, 10% T-cell growth factor, and 1:500 goat antibody to human Interferon) at 10^8 cells ml^-1 in 20 ml and were exposed to different concentrations of drugs and simultaneously infected with 10000 c.p.m. ml^-1 of HIV-1 in 20 ml/culture flask. Cultures were tested for the quantity of cell-free virus in the culture supernatants using the RT method. RT activity in the disrupted virions was tested by using exogenous template poly (rA).(dT)12-18 as described (Anand et al., (1988), supra. The reaction mixture consisted of 50mM Tris-hydrochloride (pH 7.5), 5mM dithiothreitol 100mM KCI, 10mM MgClhd 2, 10 μM [^3 H]-TTP, Triton X-100 containing poly (rA).(dT)12-18 at 30 μg ml^-1 (mcg ml^-1). The reaction mixture was incubated at 37° C. for 2 hours, and [^3 H]-TTP incorporated into polymers was precipitated with 10% trichloroacetic acid, collected on a glass fibre filter, and counted in an LKB 1219 Rackbeta scintillation counter. Various cultures in the experiment are represented: .quadrature.-.quadrature., A-CDS; .smallcircle.-.smallcircle., PPS; .smallcircle.-.smallcircle., B-CDS. The values are means of two determinations tested in two separate experiments. The range of variation was no greater than 15%.
After two days, PMNCs were infected and studied for the change in virus replication in the presence of drugs and for the direct effect of drugs on cell multiplication.
PMNCs stimulated with PHA were further propagated in Medium B(RPMI-1640 with 10% fetal calf serum. 10% T-cell growth factor and 1:500 diluted goat antibody to human interferon). […] In general, four hours after injection and drug treatment, cultures were centrifuged to remove the extracellular virus and the cells were resuspended in fresh Medium B and replenished with appropriate drug concentrations. The percent change in virus replication was calculated as (x-c)/c×100, where x represented the experimental value and c represented the control value.
Reduction in RT activity was a reflection of the inhibition of virus production and therefore virus replication. The virus was prepared from the drug-treated and untreated culture supernatants.
Cultures were infected with virus and treated with the drugs simultaneously and were tested to evaluate the amount of virus production by the reverse transcriptase (RT) method.

[3] = tested on: PMNCs; settings: for Viable cells: controls 118 and 106; for % >Increase (viable cells): increase vs control; for % <Decrease (viable cells): decrease vs control
Description: Uninfected PMNCs, drug-treated PMNCs, and drug-treated and virus-infected PMNCs in different experiments were tested for drug toxicity and for the alterations in the numbers of viable cells in response to drug treatment by trypan blue exclusion method.
To understand the mechanism of virus enhancement and to evaluate the toxicity of the sulphated sugars to PMNCs in culture, cell viability counts were performed on trypan blue-stained cells.

[4] = target: T1, reverse transcriptase enzyme of detergent-disrupted LAV-1BRU isolate (Human immunodeficiency virus type 1 (BRU ISOLATE), UniProt P03367); test: Direct effect on reverse transcriptase enzyme activity of detergent-disrupted virus; assay type: biochemical; settings: for Inhibition of RT enzyme activity: concentrations tested up to 25.0 μg ml^-1; for RT activity: control 180; for % >Increase (RT activity): increase vs control; for % <Decrease (RT activity): decrease vs control
T1 construct: poly(rA).oligo(dT) template
Description: Microb. Agents Chemother. 32:684-688 (1988).
The direct effect of A-CDS, B-CDS and PPS on the reverse transcriptase enzyme activity by treating a detergent-disrupted LAV-1BRU isolate with these drugs and subjecting it to the RT method was examined.

[5] = tested on: HIV-1 p24 antigen; test: p24 antigen ELISA in supernatant-free lysed cells; assay type: cell-based; settings: supernatant-free lysed cells after exposure
Description: Intracellular changes in the amount of HIV-1 following exposure to PPS were studied by measuring p24 antigen in the supernatant-free lysed cells.

[6] = hydrocortisone phosphate 5 μg/ml alone
[7] = α-cyclodextrin sulfate 2.5 μg/ml alone
[8] = α-cyclodextrin sulfate 5.0 μg/ml alone
[9] = α-cyclodextrin sulfate 10.0 μg/ml alone

Molecule: C[C@]12CCC(=O)C=C1CC[C@@H]1[C@@H]2[C@@H](O)C[C@@]2(C)[C@H]1CC[C@]2(O)C(=O)COP(=O)(O)O [hydrocortisone phosphate]
- Cell Count in million per mL [1, 6]: 1.2 million per mL and 1.0 million per mL
- Inhibition of HIV-1 reverse transcriptase activity (%) [2, 6]: 39% and 20%

Molecule: β-cyclodextrin sulphate [B-CDS]
- Viable cells ([3]; conc. 0.1 μg ml^-1): 188 10^4 ml^-1
- % >Increase (viable cells) ([3]; conc. 0.1 μg ml^-1): 67%
- Viable cells ([3]; conc. 0.5 μg ml^-1): 140 10^4 ml^-1
- % >Increase (viable cells) ([3]; conc. 0.5 μg ml^-1): 25%
- Inhibition of RT enzyme activity [4]: No inhibition
- Inhibition of HIV-1 replication in PMNC cultures [2]: potent inhibitors
- Replication <% decrease ([2]; B-CDS 2.5 μg ml^-1 alone): 40.1%
- RT activity ([2]; B-CDS 2.5 μg ml^-1 alone, control 187): 112 c.p.m. × 10^3 ml^-1
- Increase in virus production [2]: up to a three-fold increase in virus production
- Virus-enhancement effect [2]: virus-enhancement effect

Molecule: dextran sulphate [DS]
- Viable cells ([3]; conc. 0.1 μg ml^-1): 170 10^4 ml^-1
- % <Decrease (viable cells) ([3]; conc. 0.1 μg ml^-1): 51%
- Viable cells ([3]; conc. 0.5 μg ml^-1): 90 10^4 ml^-1
- % >Increase (viable cells) ([3]; conc. 0.5 μg ml^-1): 19%
- Virus-enhancement effect [2]: virus-enhancement effect

Molecule: .varies.-cyclodextrin sulphate [A-CDS]
- Cell Count in million per mL [1, 7]: 1.2 million per mL
- Cell Count in million per mL [1, 8]: 1.3 million per mL
- Cell Count in million per mL [1, 9]: 1.5 million per mL
- Viable cells ([3]; conc. 0.1 μg ml^-1): 140 10^4 ml^-1
- % >Increase (viable cells) ([3]; conc. 0.1 μg ml^-1): 25%
- Viable cells ([3]; conc. 0.5 μg ml^-1): 128 10^4 ml^-1
- % >Increase (viable cells) ([3]; conc. 0.5 μg ml^-1): 14%
- Inhibition of RT enzyme activity [4]: No inhibition
- Inhibition of HIV-1 replication in PMNC cultures [2]: potent inhibitors
- Replication (fold decrease) ([2]; A-CDS 0.5 μg ml^-1 alone): 2.8 fold decrease
- RT activity ([2]; A-CDS 0.5 μg ml^-1 alone, control 164): 57 c.p.m. × 10^3 ml^-1
- Replication (fold decrease) ([2]; A-CDS 1.5 μg ml^-1 alone): 4.9 fold decrease
- RT activity ([2]; A-CDS 1.5 μg ml^-1 alone, control 164): 33 c.p.m. × 10^3 ml^-1
- Relative anti-HIV potency from the dose-response relationship ([2]; PMNC cultures, infected and treated simultaneously): more potent in anti-HIV action than PPS, B-CDS and DS
- Virus-enhancement effect [2]: lacks the virus-enhancement effect
- Inhibition of HIV-1 reverse transcriptase activity (%) ([2]; α-cyclodextrin sulfate 0.5 μg/ml alone): 77%
- Inhibition of HIV-1 reverse transcriptase activity (%) ([2]; α-cyclodextrin sulfate 1.0 μg/ml alone): 72%
- Inhibition of HIV-1 reverse transcriptase activity (%) [2, 7]: 80%
- Inhibition of HIV-1 reverse transcriptase activity (%) [2, 8]: 83%
- Inhibition of HIV-1 reverse transcriptase activity (%) [2, 9]: 91%

Molecule: Cc1cn([C@H]2C[C@H](N=[N+]=[N-])[C@@H](CO)O2)c(=O)[nH]c1=O [AZT, 3'-azido-2',3'-dideoxythy-midine]
- % <Decrease (viable cells) ([3]; 10nM): 35%
- Viable cells [3]: 72 10^4 ml^-1
- Replication (fold decrease) ([2]; AZT 10 nM alone): 1.2 fold decrease
- RT activity ([2]; AZT 10 nM alone, control 164): 134 c.p.m. × 10^3 ml^-1

Molecule: Pentosan polysulfate [PPS]
- Viable cells ([3]; conc. 0.1 μg ml^-1): 268 10^4 ml^-1
- % >Increase (viable cells) ([3]; conc. 0.1 μg ml^-1): 141%
- Viable cells ([3]; conc. 0.5 μg ml^-1): 202 10^4 ml^-1
- % <Decrease (viable cells) ([3]; conc. 0.5 μg ml^-1): 80%
- Lymphoproliferative effect, increase in cell numbers relative to control cultures ([3]; particularly at low drug concentrations): more lymphoproliferative activity than B-CDS and A-CDS
- Protective effect on infected cells from HIV-associated cytopathic effect ([3]; virus-infected PMNCs, relative to virus-infected drug-free cultures): more than A-CDS and B-CDS
- Enhancement of the RT reaction ([4]; 0.1 and 0.5 μg ml^-1): enhancement of the reaction
- RT activity ([4]; drug conc. 0.1 μg ml^-1): 194 c.p.m. × 10^3 ml^-1
- % >Increase (RT activity) ([4]; drug conc. 0.1 μg ml^-1): 7.7%
- RT activity ([4]; drug conc. 0.5 μg ml^-1): 219 c.p.m. × 10^3 ml^-1
- % >Increase (RT activity) ([4]; drug conc. 0.5 μg ml^-1): 21.6%
- RT activity ([4]; drug conc. 2.0 μg ml^-1): 163 c.p.m. × 10^3 ml^-1
- % <Decrease (RT activity) ([4]; drug conc. 2.0 μg ml^-1): 9.4%
- RT activity ([4]; drug conc. 4.0 μg ml^-1): 22 c.p.m. × 10^3 ml^-1
- % <Decrease (RT activity) ([4]; drug conc. 4.0 μg ml^-1, 120 min): 87% and 87.7%
- RT activity ([4]; drug conc. 5.0 μg ml^-1): 17 c.p.m. × 10^3 ml^-1
- RT activity ([4]; drug conc. 6.0 μg ml^-1): 17 c.p.m. × 10^3 ml^-1
- % <Decrease (RT activity) ([4]; drug conc. 6.0 μg ml^-1, 120 min): 90.5%
- RT activity ([4]; drug conc. 8.0 μg ml^-1): 9 c.p.m. × 10^3 ml^-1
- % <Decrease (RT activity) ([4]; drug conc. 8.0 μg ml^-1, 120 min): 95.0%
- RT activity ([4]; drug conc. 10.0 μg ml^-1): 7 c.p.m. × 10^3 ml^-1
- % <Decrease (RT activity) ([4]; drug conc. 10.0 μg ml^-1, 120 min): 97.7%
- RT activity ([4]; drug conc. 15.0 μg ml^-1): 4 c.p.m. × 10^3 ml^-1
- % <Decrease (RT activity) ([4]; drug conc. 15.0 μg ml^-1, 120 min): 97.7%
- RT activity ([4]; drug conc. 20.0 μg ml^-1): 2 c.p.m. × 10^3 ml^-1
- % <Decrease (RT activity) ([4]; drug conc. 20.0 μg ml^-1, 120 min): 99.8%
- RT activity ([4]; drug conc. 25.0 μg ml^-1): 1 c.p.m. × 10^3 ml^-1
- % <Decrease (RT activity) ([4]; drug conc. 25.0 μg ml^-1, 120 min): 99.4%
- HIV-specific p24 in the cells [5]: decrease in HIV-specific p24 in the cells
- Inhibition of HIV-1 replication in PMNC cultures [2]: potent inhibitors
- Replication <% decrease ([2]; PPS 2.0 μg ml^-1 alone): 77.0%
- RT activity ([2]; PPS 2.0 μg ml^-1 alone, control 187): 43 c.p.m. × 10^3 ml^-1
- Increase in virus production [2]: up to a three-fold increase in virus production
- Virus-enhancement effect [2]: virus-enhancement effect
